Test results from patent publication US20230124361A1, “SMALL MOLECULE STING ANTAGONISTS” (CURADEV PHARMA PVT. LTD., priority 2020, published 2023).

molecular target: T1, STING (Homo sapiens, UniProt Q86WV6, G230A/H232R/R293Q/R71H); assay: Reporter gene expression assay in THP1-Dual cells (IRF pathway Lucia luciferase, 2',3'-cGAMP stimulation); format: cell-based; settings: 10 min preincubation, 5 μM 2',3'-cGAMP, 20 hr, IRF reporter QUANTI-Luc, read-out: THP-1 (HAQ) Activity
T1 construct: host or cells: THP1-Dual cells (human THP-1 monocyte line with Lucia/SEAP reporters)
Description: Reporter Gene Expression Assay in THP-1 Cells
THP1-Dual™ cells (Invivogen) were derived from the human THP-1 monocyte cell line by stable integration of two inducible reporter constructs. As a result, THP1-Dual™ cells allow the simultaneous study of the IRF pathway, by assessing the activity of a secreted luciferase (Lucia) and the NF-κB pathway, by monitoring the activity of secreted SEAP. 5×10^4 THP1-Dual™ cells were seeded in 384-well plates in growth medium and preincubated with novel compounds for 10 minutes followed by stimulation with 5 μM 2′,3′-cGAMP. After 20 hr of stimulation the supernatant was removed and the IRF pathway reporter protein was readily measured in the cell culture supernatant using QUANTI-Luc™ (Invivogen), a luciferase detection reagent on a Spectramax i3X luminometer.
In the tables below, IC50 value ranges for exemplary compounds are given. The IC50 ranges are indicated as “A” for values less than or equal to 1 μM, “B” for values greater than 1 μM and less than or equal to 10 μM, and “C” for values greater than 10 μM.

T1 sequence (Q86WV6 whole entry R71H/G230A/H232R/R293Q): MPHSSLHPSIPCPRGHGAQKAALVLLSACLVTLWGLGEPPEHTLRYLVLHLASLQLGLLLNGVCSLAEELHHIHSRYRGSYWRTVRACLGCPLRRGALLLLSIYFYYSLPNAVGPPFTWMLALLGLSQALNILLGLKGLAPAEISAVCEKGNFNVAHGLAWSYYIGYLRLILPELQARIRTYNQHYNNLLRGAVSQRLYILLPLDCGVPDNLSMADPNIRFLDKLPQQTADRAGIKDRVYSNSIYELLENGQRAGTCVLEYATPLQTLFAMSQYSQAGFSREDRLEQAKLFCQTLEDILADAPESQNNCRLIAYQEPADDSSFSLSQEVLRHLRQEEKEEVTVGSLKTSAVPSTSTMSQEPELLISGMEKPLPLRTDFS

Structure (SMILES)	IC50
O=C1CSc2ccc(-c3nc(-c4ccccc4)co3)cc2N1Cc1c(F)cccc1Cl [Example 46, 4-(2-Chloro-6-fluorobenzyl)-6-(4-phenyloxazol-2-yl)-2H-benzo[b][1,4]thiazin-3(4H)-one]	> 10 µM
O=C(Nc1ccc2c(c1)OCC(=O)N2Cc1c(F)cccc1Cl)Nc1ccc2cc[nH]c2c1 [Example 93, l-(4-(2-chloro-6-fluorobenzy 1)-3-oxo-3,4-dihydro-2H-benzo[b][i, 4]oxazin-7-yl)-3-(1H-indol-6-yl)urea]	1 to 10 µM
NC(=O)C1COc2ccc(NC(=O)Nc3ccc4cc[nH]c4c3)cc2N1Cc1ccccc1 (stereo not drawn) [Example 83]	1 to 10 µM
COc1ccc(F)c(CN2C(=O)CSc3cc(NC(=O)Nc4ccc5cc[nH]c5c4)ccc32)c1Cl [Example 124, l-(4-(2-chloro-6-fluoro-3-methoxybenzyl)-3-oxo-3,4-dihydro-2H-benzo[b][1, 4]thiazin-7-yl)-3-(1H-indol-6-yl)urea]	≤ 1 µM
O=C(Nc1ccc2c(c1)N(Cc1noc3ccccc13)C(=O)CS2)Nc1ccc2cc[nH]c2c1 [Example 24, 1-(4-(benzo[d]isoxazol-3-ylmethyl)-3-oxo-3,4-dihydro-2H-benzo [b][1,4]thiazin-6-yl)-3-(1H-indol-6-yl)urea]	1 to 10 µM
CN1CCSc2ccc(NC(=O)Nc3ccc4cc[nH]c4c3)cc21 [Example 168, 1-(1H-indol-6-yl)-3-(4-methyl-3,4-dihydro-2H-benzo[b][1, 4]thiazin-6-yl)urea]	> 10 µM
O=C(Nc1ccc2c(c1)OCC(=O)N2CCc1ccccc1Cl)Nc1ccc2cc[nH]c2c1 [Example 110, 1-(4-(2-chlorophenethyl)-3-oxo-3,4-dihydro-2H-benzo[b][1,4]oxazin-7-yl)-3-(1H-indol-6-yl)urea]	1 to 10 µM
O=C(Nc1ccc2c(c1)OCC(=O)N2Cc1ccn[nH]1)Nc1ccc2cc[nH]c2c1 [Example 161, 1-(4-((1H-pyrazol-5-yl)methyl)-3-oxo-3,4-dihydro-2H-benzo[b][1, 4]oxazin-7-yl)-3-(1H-indol-6-yl)urea]	> 10 µM
O=C1CSc2ccc(COCc3ccc(F)cc3)cc2N1Cc1c(F)cccc1Cl [Example 42]	1 to 10 µM
O=C(Nc1ccc(F)cc1)Nc1ccc2c(c1)N(Cc1cn3ccccc3n1)C(=O)CS2 [Example 26, 1-(4-fluorophenyl)-3-(4-(imidazo [1,2-a]pyridin-2-ylmethyl)-3-oxo-3,4-dihydro-2H-benzo[b][1, 4]thiazin-6-yl)urea]	1 to 10 µM
O=C(Nc1ccc2c(c1)N(Cc1ccccc1)C(=O)CS2)Nc1c[nH]c2ccccc12 [Example 18, 1-(4-benzyl-3-oxo-3,4-dihydro-2H-benzo[b][1, 4]thiazin-6-yl)-3-(1H-indol-3-yl)urea]	≤ 1 µM
O=C(Nc1ccc2c(c1)OCC(=O)N2Cc1ccccc1)Nc1c[nH]nc1-c1ccc(Cl)cc1 [Example 131, 1-(4-benzyl-3-oxo-3,4-dihydro-2H-benzo[b][1, 4]oxazin-7-yl)-3-(3-(4-chlorophenyl)-1H-pyrazol-4-yl)urea]	> 10 µM
O=C(Nc1ccc2c(c1)OCC(=O)N2Cc1cc(F)cc(Cl)c1)Nc1ccc2cc[nH]c2c1 [Example 102, 1-(4-(3-chloro-5-fluorobenzyl)-3-oxo-3,4-dihydro-2H-benzo[b][1,4]oxazin-7-yl)-3-(1H-indol-6-yl)urea]	≤ 1 µM
N#Cc1ccc(CN2C(=O)COc3cc(NC(=O)Nc4ccc5cc[nH]c5c4)ccc32)c(F)c1 [Example 120, 1-(4-(4-cyano-2-fluorobenzyl)-3-oxo-3,4-dihydro-2H-benzo[b][1,4]oxazin-7-yl)-3-(1H-indol-6-yl)urea]	1 to 10 µM
Nc1cccc(NC(=O)Nc2ccc3c(c2)N(Cc2ccccc2)C(=O)CS3)c1 [Example 25, 1-(3-aminophenyl)-3-(4-benzyl-3-oxo-3,4-dihydro-2H-benzo [b][1,4]thiazin-6-yl)urea]	1 to 10 µM
O=C(Nc1ccc2c(c1)OCC(=O)N2Cc1ccccc1O)Nc1ccc2cc[nH]c2c1 [Example 159, 1-(4-(2-hydroxybenzyl)-3-oxo-3,4-dihydro-2H-benzo [b][1, 4]oxazin-7-yl)-3-(1H-indol-6-yl)urea]	1 to 10 µM
O=C(Nc1ccc2c(c1)SCC(=O)N2Cc1c(F)cccc1Cl)Nc1ccc2cc[nH]c2c1 [Example 89, 1-(4-(2-chloro-6-fluorobenzyl)-3-oxo-3,4-dihydro-2H-benzo[b][1, 4]thiazin-7-yl)-3-(1H-indol-6-yl)urea]	≤ 1 µM
O=C(Nc1ccc2c(c1)OCC(=O)N2Cc1ccc(CO)cc1)Nc1ccc2cc[nH]c2c1 [Example 153, 1-(4-(4-(hydroxymethyl)benzyl)-3-oxo-3,4-dihydro-2H-benzo[b][1, 4]oxazin-7-yl)-3-(1H-indol-6-yl)urea]	> 10 µM

Structure (SMILES)	IC50
NC(=O)c1cc2c(cc1NC(=O)Nc1ccc3cc[nH]c3c1)OCC(=O)N2Cc1ccccc1 [Example 165, 7-(3-(H-indol-6-yl)ureido)-4-benzyl-3-oxo-3,4-dihydro-2H-benzo[b][1, 4]oxazine-6-carboxamide]	1 to 10 µM
O=C(Nc1ccc2c(c1)OCC(=O)N2Cc1ccc(C(=O)O)cn1)Nc1ccc2cc[nH]c2c1 [Example 118, 6-((7-(3-(1H-indol-6-yl)ureido)-3-oxo-2,3-dihydro-4H-benzo[b][1,4]oxazin-4-yl)methyl)nicotinic acid]	> 10 µM
N#CC1COc2cc(NC(=O)Nc3ccc4cc[nH]c4c3)ccc2N1Cc1ccccc1 (stereo not drawn) [Example 186, 1-(4-benzyl-3-cyano-3,4-dihydro-2H-benzo[b][1,4]oxazin-7-yl)-3-(1H-indol-6-yl)urea]	1 to 10 µM
O=C(Nc1ccc2c(c1)N(Cc1ccc(OC(F)(F)F)cc1F)CCO2)Nc1ccc2cc[nH]c2c1 [Example 174, 1-(4-(2-fluoro-4-(trifluoro-methoxy)benzyl)-3,4-dihydro-2H-benzo[b][1, 4]oxazin-6-yl)-3-(1H-indol-6-yl)urea]	≤ 1 µM
O=C(NCc1cc[nH]c1)Nc1ccc2c(c1)OCC(=O)N2Cc1ccccc1 [Example 132, 1-((1H-pyrrol-3-yl)methyl)-3-(4-benzyl-3-oxo-3,4-dihydro-2H-benzo[b][1, 4]oxazin-7-yl)urea]	1 to 10 µM
O=C(Nc1ccc2c(c1)OCC(=O)N2Cc1cc(F)cc(F)c1)Nc1ccc2cc[nH]c2c1 [Example 105, 1-(4-(3,5-difluorobenzyl)-3-oxo-3,4-dihydro-2H-benzo[b][1,4]oxazin-7-yl)-3-(1H-indol-6-yl)urea]	≤ 1 µM
O=C(Nc1ccc2c(c1)N(Cc1ccccc1)C(=O)CS2)Nc1ccc2cn[nH]c2c1 [Example 28, 1-(4-benzyl-3-oxo-3,4-dihydro-2H-benzo[b][1, 4]thiazin-6-yl)-3-(1H-indazol-6-yl)urea]	1 to 10 µM
O=C(Nc1ccc2c(c1)N(Cc1ccccc1)CCO2)Nc1ccc2cc[nH]c2n1 [Example 172, 1-(4-benzyl-3,4-dihydro-2H-benzo[b][1, 4]oxazin-6-yl)-3-(1H-pyrrolo[2,3-b]pyridin-6-yl)urea]	1 to 10 µM
Cn1ccc2ccc(NC(=O)Nc3ccc4c(c3)N(Cc3ccccc3)C(=O)CS4)cc21 [Example 27, 1-(4-benzyl-3-oxo-3,4-dihydro-2H-benzo[b] [1,4]thiazin-6-yl)-3-(1-methyl-1H-indol-6-yl)urea]	> 10 µM
COC(=O)C(c1ccccc1)N1CCOc2ccc(NC(=O)Nc3ccc4cc[nH]c4c3)cc21 (stereo not drawn) [Example 86]	1 to 10 µM
O=C(Nc1ccc2c(c1)N(C(CO)c1ccccc1)CCO2)Nc1ccc2cc[nH]c2c1 (stereo not drawn) [Example 85, 1-(4-(2-Hydroxy-1-phenylethyl)-3,4-dihydro-2H-benzo[b][1,4]oxazin-6-yl)-3-(1H-indol-6-yl)urea]	1 to 10 µM
NC(=O)c1cc2c(cc1NC(=O)Nc1ccc3cc[nH]c3c1)N(Cc1ccccc1)CCO2 [Example 179, 6-(3-(1H-indol-6-yl)ureido)-4-benzyl-3,4-dihydro-2H-benzo[b][1, 4]oxazine-7-carboxamide]	1 to 10 µM
O=C(Nc1ccc2c(c1)SCC(=O)N2Cc1c(F)cc(O)cc1F)Nc1ccc2cc[nH]c2c1 [Example 127, 1-(4-(2,6-difluoro-4-hydroxybenzyl)-3-oxo-3,4-dihydro-2H-benzo[b][1, 4]thiazin-7-yl)-3-(1H-indol-6-yl)urea]	1 to 10 µM
CC1(C)Oc2cc(NC(=O)Nc3ccc4cc[nH]c4c3)ccc2N(Cc2ccccc2)C1=O [Example 90, 1-(4-benzyl-2,2-dimethyl-3-oxo-3,4-dihydro-2H-benzo[b][1, 4]oxazin-7-yl)-3-(1H-indol-6-yl)urea]	1 to 10 µM
N#CCN1C(=O)COc2cc(NC(=O)Nc3ccc4cc[nH]c4c3)ccc21 [Example 157, 1-(4-(cyanomethyl)-3-oxo-3,4-dihydro-2H-benzo[b][1, 4]oxazin-7-yl)-3-(1H-indol-6-yl)urea]	1 to 10 µM
O=C(Nc1ccc2c(c1)OCC(=O)N2c1ccccc1)Nc1ccc2cc[nH]c2c1 [Example 75, 1-(1H-Indol-6-yl)-3-(3-oxo-4-phenyl-3,4-dihydro-2H-benzo[b][1,4]oxazin-7-yl)urea]	1 to 10 µM
O=C(Nc1ccc2c(c1)OCC(=O)N2Cc1ccccc1)NC1CCc2ccccc2C1 (stereo not drawn) [Example 135, 1-(4-benzyl-3-oxo-3,4-dihydro-2H-benzo[b][1, 4]oxazin-7-yl)-3-(1,2,3,4-tetrahydro-naphthalen-2-yl)urea]	1 to 10 µM
O=C(Nc1cccnc1)Nc1ccc2c(c1)N(Cc1ccccc1)C(=O)CS2 [Example 4, 1-(4-benzyl-3-oxo-3,4-dihydro-2H-benzo[b][1, 4]thiazin-6-yl)-3-(pyridin-3-yl)urea]	1 to 10 µM
